This note sets out measurements from patent publication US10449168B2 (The University of Toledo, priority 2015, dated 2019).

Entries after “also recorded” stand apart in the source; their conditions may differ.

The target in the first assay is Streptococcus pneumoniae aspartate semialdehyde dehydrogenase (spASADH) (Streptococcus pneumoniae, UniProt Q8DQ00). The assay is described as follows: biochemical. Type of assay: biochemical. The note with it: competitive vs ASA, 0.15 mM ASA, pH 8.6; read-out: Ki for spASADH.
By Ki is commonly meant a dissociation constant, usually derived from enzyme kinetics or from competition with a known ligand. `O=C(O)CCNCc1ccc(C(=O)O)c(C(=O)O)c1` [Compound 4, N-carboxyethyl-3,4-dicarboxybenzylamine]: the Ki turned out to be 2400 µM.

Turning to `CN(CC(=O)O)Cc1cccc(C(=O)O)c1C(=O)O` [Compound 9, N-methyl, N-carboxymethyl-2,3-dicarboxybenzylamine], the Ki turned out to be 1800 µM.

The same assay, now with this note: relative to parent or neighbouring derivative.
Turning to `O=C(O)CNCc1ccc(C(=O)O)c(C(=O)O)c1` [Compound 3, N-carboxymethyl-3,4-dicarboxybenzylamine], the “inhibition / binding affinity for spASADH (in words)” value is reported as “two-fold stronger inhibitor; also recorded: high millimolar inhibitor”.

Turning to `O=C(O)CCNCc1ccc(C(=O)O)c(C(=O)O)c1` [Compound 4, N-carboxyethyl-3,4-dicarboxybenzylamine], the “inhibition / binding affinity for spASADH (in words)” value is recorded as “substantial affinity loss”.

On to `C[C@H](NCc1ccc(C(=O)O)c(C(=O)O)c1)C(=O)O` [Compound 5, N-((2-methyl)carboxymethyl)-3,4-dicarboxybenzylamine], for which the “inhibition / binding affinity for spASADH (in words)” value is “no appreciable effect on the binding affinity; also recorded: did not lead to enhanced affinity”.

In the case of `O=C(O)c1ccc(CN[C@@H](CO)C(=O)O)cc1C(=O)O` [Compound 6, N-((2-hydroxymethyl)carboxymethyl)-3,4-dicarboxybenzylamine], the “inhibition / binding affinity for spASADH (in words)” value is recorded as “no appreciable effect on the binding affinity; also recorded: did not lead to enhanced affinity”.

Regarding `O=C(O)CN(Cc1ccc(C(=O)O)c(C(=O)O)c1)Cc1ccccc1C(F)(F)F` [Compound 24, N-(2-trifluoromethylbenzyl)-N-carboxymethyl-3,4-dicarboxybenzylamine], the “inhibition / binding affinity for spASADH (in words)” value is reported as “did not alter the affinity”.

As to `O=C(O)CN(Cc1cccc(C(F)(F)F)c1)Cc1ccc(C(=O)O)c(C(=O)O)c1` [Compound 25, N-(3-trifluoromethylbenzyl)-N-carboxymethyl-3,4-dicarboxybenzylamine], the “inhibition / binding affinity for spASADH (in words)” value is reported as “did not alter the affinity”.

Take `O=C(O)CN(Cc1ccc(C(=O)O)c(C(=O)O)c1)Cc1ccccc1OC(F)(F)F` [Compound 27, N-(2-trifluoromethyoxybenzyl)-N-carboxymethyl-3,4-dicarboxybenzylamine]: the “inhibition / binding affinity for spASADH (in words)” value was “did not alter the affinity”.

On to `O=C(O)CN(Cc1cccc(OC(F)(F)F)c1)Cc1ccc(C(=O)O)c(C(=O)O)c1` [Compound 28, N-(3-trifluoromethoxybenzyl)-N-carboxymethyl-3,4-dicarboxybenzylamine], for which the “inhibition / binding affinity for spASADH (in words)” value is “did not alter the affinity”.

For the next assay, the target named is T1, Vibrio cholerae aspartate semialdehyde dehydrogenase (vcASADH) (Vibrio cholerae serotype O1, UniProt P23247).
T1 construct: made in house
T1 sequence (P23247 whole entry): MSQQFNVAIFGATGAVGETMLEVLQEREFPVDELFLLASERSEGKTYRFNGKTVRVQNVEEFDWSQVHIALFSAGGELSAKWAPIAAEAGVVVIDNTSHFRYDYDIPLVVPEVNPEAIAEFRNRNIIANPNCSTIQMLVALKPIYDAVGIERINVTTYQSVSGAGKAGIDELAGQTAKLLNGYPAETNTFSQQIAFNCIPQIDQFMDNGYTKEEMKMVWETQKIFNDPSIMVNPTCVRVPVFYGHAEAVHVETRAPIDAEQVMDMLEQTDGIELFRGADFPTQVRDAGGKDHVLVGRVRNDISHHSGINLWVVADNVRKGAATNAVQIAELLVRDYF
The assay is described as follows: biochemical. The class given is biochemical.
Details: not given
`O=C(O)CNCc1ccc(C(=O)O)c(C(=O)O)c1` [Compound 3, N-carboxymethyl-3,4-dicarboxybenzylamine]: the Ki stood at 500 µM.

Still in this assay, the particulars now being: relative to parent or neighbouring derivative.
In the case of `O=C(O)CNCc1ccc(C(=O)O)c(C(=O)O)c1` [Compound 3, N-carboxymethyl-3,4-dicarboxybenzylamine], the “inhibition / binding affinity for vcASADH (in words)” value is given as “high millimolar inhibitor”.

Regarding `O=C(O)CCNCc1ccc(C(=O)O)c(C(=O)O)c1` [Compound 4, N-carboxyethyl-3,4-dicarboxybenzylamine], the “inhibition / binding affinity for vcASADH (in words)” value is reported as “did not show appreciable inhibition”.

Turning to `C[C@H](NCc1ccc(C(=O)O)c(C(=O)O)c1)C(=O)O` [Compound 5, N-((2-methyl)carboxymethyl)-3,4-dicarboxybenzylamine], the “inhibition / binding affinity for vcASADH (in words)” value is listed as “no appreciable effect on the binding affinity”.

Turning to `O=C(O)c1ccc(CN[C@@H](CO)C(=O)O)cc1C(=O)O` [Compound 6, N-((2-hydroxymethyl)carboxymethyl)-3,4-dicarboxybenzylamine], the “inhibition / binding affinity for vcASADH (in words)” value is “no appreciable effect on the binding affinity”.

With `CN(CC(=O)O)Cc1cccc(C(=O)O)c1C(=O)O` [Compound 9, N-methyl, N-carboxymethyl-2,3-dicarboxybenzylamine], the “inhibition / binding affinity for vcASADH (in words)” value was “no inhibition”.

For `Cc1ccc(CN(CC(=O)O)Cc2ccc(C(=O)O)c(C(=O)O)c2)cc1` [Compound 23, N-(4-methylbenzyl)-N-carboxymethyl-3,4-dicarboxybenzylamine], the “inhibition / binding affinity for vcASADH (in words)” value is “did not show any improved affinity”.

For the compound `O=C(O)CN(Cc1ccc(C(=O)O)c(C(=O)O)c1)Cc1ccccc1C(F)(F)F` [Compound 24, N-(2-trifluoromethylbenzyl)-N-carboxymethyl-3,4-dicarboxybenzylamine], the “inhibition / binding affinity for vcASADH (in words)” value is “did not alter the affinity”.

Regarding `O=C(O)CN(Cc1cccc(C(F)(F)F)c1)Cc1ccc(C(=O)O)c(C(=O)O)c1` [Compound 25, N-(3-trifluoromethylbenzyl)-N-carboxymethyl-3,4-dicarboxybenzylamine], the “inhibition / binding affinity for vcASADH (in words)” value is “did not alter the affinity”.

Consider `O=C(O)CN(Cc1ccc(C(=O)O)c(C(=O)O)c1)Cc1ccccc1OC(F)(F)F` [Compound 27, N-(2-trifluoromethyoxybenzyl)-N-carboxymethyl-3,4-dicarboxybenzylamine], for which the “inhibition / binding affinity for vcASADH (in words)” value was “did not alter the affinity”.

As for `O=C(O)CN(Cc1cccc(OC(F)(F)F)c1)Cc1ccc(C(=O)O)c(C(=O)O)c1` [Compound 28, N-(3-trifluoromethoxybenzyl)-N-carboxymethyl-3,4-dicarboxybenzylamine], the “inhibition / binding affinity for vcASADH (in words)” value is given as “did not alter the affinity”.

Another assay has as its target T2, aspartate N-acetyltransferase (ANAT) (Homo sapiens, UniProt Q8N9F0).
T2 sequence (Q8N9F0 1-302): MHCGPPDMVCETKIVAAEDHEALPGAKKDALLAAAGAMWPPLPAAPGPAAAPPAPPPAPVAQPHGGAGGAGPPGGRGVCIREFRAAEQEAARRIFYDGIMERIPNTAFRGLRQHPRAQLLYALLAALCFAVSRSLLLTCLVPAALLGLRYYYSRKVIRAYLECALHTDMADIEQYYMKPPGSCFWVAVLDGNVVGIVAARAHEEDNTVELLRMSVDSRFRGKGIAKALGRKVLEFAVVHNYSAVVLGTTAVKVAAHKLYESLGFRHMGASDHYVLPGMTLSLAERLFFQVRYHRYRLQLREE
The assay can be described thus: ANAT substrate selectivity (acetyl group acceptor). Type of assay: biochemical. To be noted: glutamate vs. aspartate as acetyl acceptor. The source says:
ANAT is difficult to purify.
For `N[C@@H](CCC(=O)O)C(=O)O` [glutamate], the “catalytic efficiency relative to that of the physiological substrate” value is “less than 1%”.

The next assay concerns the target T3, Streptococcus pneumoniae aspartate semialdehyde dehydrogenase (spASADH) (Streptococcus pneumoniae, UniProt Q8DQ00).
T3 construct: homodimer from general knowledge
T3 sequence (Q8DQ00 1-358): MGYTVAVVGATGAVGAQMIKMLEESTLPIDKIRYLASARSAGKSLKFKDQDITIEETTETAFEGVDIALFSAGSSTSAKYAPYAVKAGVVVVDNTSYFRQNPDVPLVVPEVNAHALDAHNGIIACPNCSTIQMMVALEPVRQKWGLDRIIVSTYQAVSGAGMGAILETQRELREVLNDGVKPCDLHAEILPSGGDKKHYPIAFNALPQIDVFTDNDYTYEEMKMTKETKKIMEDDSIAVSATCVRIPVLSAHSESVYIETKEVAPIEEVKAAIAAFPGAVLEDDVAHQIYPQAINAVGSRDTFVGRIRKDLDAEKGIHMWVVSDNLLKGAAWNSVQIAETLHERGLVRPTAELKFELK
The assay is described as follows: spASADH kinetic assay: reverse direction, NADPH absorbance at 340 nm; Ki from Dixon plot assuming competitive inhibition against ASA. Type of assay: biochemical. To be noted: FIG. 4, Table 1; pH 8.6, r.t., 0.15 mM ASA, 1.5 mM NADP, 20 mM phosphate.
Consider `O=C(O)CNCc1ccc(C(=O)O)c(C(=O)O)c1` [Compound 3, N-carboxymethyl-3,4-dicarboxybenzylamine], for which the Ki was 246 ± 20 µM.

`C[C@H](NCc1ccc(C(=O)O)c(C(=O)O)c1)C(=O)O` [Compound 5, N-((2-methyl)carboxymethyl)-3,4-dicarboxybenzylamine] returned a Ki of 296 ± 26 µM.

Compound `O=C(O)c1ccc(CN[C@@H](CO)C(=O)O)cc1C(=O)O` [Compound 6, N-((2-hydroxymethyl)carboxymethyl)-3,4-dicarboxybenzylamine] yielded a Ki of 324 ± 24 µM.

Staying with this assay, now noted: FIG. 5, Table 2; pH 8.6, r.t., 0.15 mM ASA, 1.5 mM NADP, 20 mM phosphate.
`Cc1ccc(CN(CC(=O)O)Cc2ccc(C(=O)O)c(C(=O)O)c2)cc1` [Compound 23, N-(4-methylbenzyl)-N-carboxymethyl-3,4-dicarboxybenzylamine] came in with a Ki of 63 ± 7 µM.

Consider `O=C(O)CN(Cc1ccc(C(=O)O)c(C(=O)O)c1)Cc1ccccc1C(F)(F)F` [Compound 24, N-(2-trifluoromethylbenzyl)-N-carboxymethyl-3,4-dicarboxybenzylamine], for which the Ki was 509 ± 29 µM.

For the compound `O=C(O)CN(Cc1cccc(C(F)(F)F)c1)Cc1ccc(C(=O)O)c(C(=O)O)c1` [Compound 25, N-(3-trifluoromethylbenzyl)-N-carboxymethyl-3,4-dicarboxybenzylamine], the Ki was determined as 441 ± 27 µM.

On to `O=C(O)CN(Cc1ccc(C(=O)O)c(C(=O)O)c1)Cc1ccccc1OC(F)(F)F` [Compound 27, N-(2-trifluoromethyoxybenzyl)-N-carboxymethyl-3,4-dicarboxybenzylamine], for which the Ki came out at 540 ± 32 µM.

Compound `O=C(O)CN(Cc1cccc(OC(F)(F)F)c1)Cc1ccc(C(=O)O)c(C(=O)O)c1` [Compound 28, N-(3-trifluoromethoxybenzyl)-N-carboxymethyl-3,4-dicarboxybenzylamine] had a Ki of 427 ± 31 µM.

A further assay has as its target Vibrio cholerae aspartate semialdehyde dehydrogenase (vcASADH). The assay is described as follows: vcASADH kinetic assay: reverse direction, NADPH absorbance at 340 nm; Ki from Dixon plot assuming competitive inhibition against ASA. The class given is biochemical. The note with it: FIG. 4, Table 1; pH 8.6, r.t., 0.3 mM ASA, 1.5 mM NADP, 20 mM phosphate.
`C[C@H](NCc1ccc(C(=O)O)c(C(=O)O)c1)C(=O)O` [Compound 5, N-((2-methyl)carboxymethyl)-3,4-dicarboxybenzylamine]: the Ki was determined as 609 ± 23 µM.

`O=C(O)c1ccc(CN[C@@H](CO)C(=O)O)cc1C(=O)O` [Compound 6, N-((2-hydroxymethyl)carboxymethyl)-3,4-dicarboxybenzylamine] displayed a Ki of 654 ± 22 µM.

The assay is the same for the next values; noted with them: FIG. 5, Table 2; pH 8.6, r.t., 0.3 mM ASA, 1.5 mM NADP, 20 mM phosphate.
Turning to `Cc1ccc(CN(CC(=O)O)Cc2ccc(C(=O)O)c(C(=O)O)c2)cc1` [Compound 23, N-(4-methylbenzyl)-N-carboxymethyl-3,4-dicarboxybenzylamine], the affinity corresponds to a Ki of 608 ± 42 µM.

In turn, `O=C(O)CN(Cc1ccc(C(=O)O)c(C(=O)O)c1)Cc1ccccc1C(F)(F)F` [Compound 24, N-(2-trifluoromethylbenzyl)-N-carboxymethyl-3,4-dicarboxybenzylamine] had a Ki of 727 ± 60 µM.

For `O=C(O)CN(Cc1cccc(C(F)(F)F)c1)Cc1ccc(C(=O)O)c(C(=O)O)c1` [Compound 25, N-(3-trifluoromethylbenzyl)-N-carboxymethyl-3,4-dicarboxybenzylamine], the inhibition constant Ki came to 678 ± 36 µM.

The compound `O=C(O)CN(Cc1ccc(C(=O)O)c(C(=O)O)c1)Cc1ccccc1OC(F)(F)F` [Compound 27, N-(2-trifluoromethyoxybenzyl)-N-carboxymethyl-3,4-dicarboxybenzylamine] showed a Ki of 708 ± 47 µM.

`O=C(O)CN(Cc1cccc(OC(F)(F)F)c1)Cc1ccc(C(=O)O)c(C(=O)O)c1` [Compound 28, N-(3-trifluoromethoxybenzyl)-N-carboxymethyl-3,4-dicarboxybenzylamine] showed a Ki of 684 ± 35 µM.
